What all share (format): cell-based
One experiment relates to fungi. The experiment in a line: Fungicidal activity of pasteurisation adjuncts at 50° C. versus 30° C. (MIC50). The settings on record: for Importance: rating of importance as pasteurisation adjunct. Here is the method:
In the table the minimum inhibitory concentration (MIC) is given for each compound as well as the molecular weight (M.W.), the logPoct and a rating of its importance. […] The logPoct, that is the logarithm of the partition coefficient of the relevant compound in octanol and thus a measure of its […], was determined using […]™ software from the CHEMOFFICE ULRA ENHANCED 2000™ software package (version 5.5) that is commercially available from CambridgeSoft.

Experiment [1] is described as follows: Minimum inhibitory concentration (MIC) of antimicrobials / essential oils. An excerpt:
The minimum inhibitory concentration (MIC) is given for each compound.
In each case the respective minimum inhibitory concentration (MIC) and their specific preferred concentration is also given.

For experiment [2], the system named is yeast Saccharomyces cerevisiae X2180-1B. The experiment in a line: Yeast growth in Ready to Drink tea (0.14% tea, pH 3.4) after 2 min at temperature, OD 600 nm at 14 days. The note with it: RTD tea; for prevention of yeast growth by low levels of the adjunct: adjunct 0-12 ppm in combination with cinnamic acid 0-60 ppm.
Where [3] appears, read: read-out: MIC50 in ppm (in brackets under the mM value).
[4] abbreviates: minimum inhibitory concentration, fungicidal activity when heated to 50° C.
Setting [5] is: Table I, preferred essential oils.
Where [6] appears, read: Table II, particularly preferred essential oils.
Where [7] appears, read: 20° C., adjunct 0-12 ppm, cinnamic acid 0-60 ppm.

We go through 55 molecules from patent US6599548B2, “Ambient stable beverage” (priority 2000, dated 2003).

Values after ≈ are worked out from the molar mass of the structure shown. Where two headings read alike, the source gives them in different places.

For orientation: MIC50 means the lowest concentration that inhibits either 50% of growth or 50% of the strains tested, depending on the study. In the case of `CCCCCCCCCC=CC=O` [2-Dodecenal], in the experiment on fungi, the Importance entry is “High”. For the same molecule, the MIC50 in the experiment on fungi (setting [3]) was less than 9 µg/mL.

For `CC(C)C(=O)OCCOc1ccccc1` [2-Phenoxylethyl isobutyrate], the Importance result in the experiment with fungi was “High”.

`CCCCCCCCCCC=CC=O` [2-Tridecenal]: the Importance result in the experiment on fungi is on record as “High”. Besides, the MIC50 in the experiment with fungi (setting [3]) is less than 9.8 µg/mL.

Turning to `CCCCCCCCCC(C)=O` [2-Undecanone], the Importance result in the experiment with fungi is given as “High”.

As to `C=CCOC(=O)CCC1CCCCC1` [Allyl cyclohexanepropionate], the Importance result with fungi is reported as “High”.

Turning to `CCCCCOC(=O)CCCCC` [Amyl hexanoate], the Importance result with fungi is recorded as “High”.

In turn, `O=C(c1ccccc1)C(O)c1ccccc1` (centres unmarked) [Benzoin] came in with an Importance in the experiment with fungi of 10.

Take `CCCCCCC(=O)OCCCC` [Butyl heptanoate]: in the experiment with fungi, the Importance entry is reported as “High”.

`C=C(C)C1CC=C(C)C(OC(=O)CC)C1` (centres unmarked) [Carvyl propionate]: the “MIC50” value with fungi (setting [4]) came out at 5 mM.

As a reminder, the MIC is the lowest concentration found to suppress growth. Low readings indicate a more susceptible organism, high ones a less susceptible organism. On to `O=C(O)C=Cc1ccccc1` [Cinnamic acid], for which it took 148 µg/mL (≈ 999 µM) to inhibit growth in experiment [1] (setting [5]) (MIC). Besides, the “MIC (ppm)” value in experiment [1] (setting [6]) was 148 ppm.

On to `CC(C)c1ccc(CO)cc1` [Cumic alcohol], for which the “MIC (ppm)” value in experiment [1] (setting [5]) and in experiment [1] (setting [6]) was 450 ppm each time.

For `CCCCCCCCCCOC(C)=O` [Decyl acetate], in the experiment on fungi, the “fungicidal activity at 30° C.” value is given as “no fungicidal activity”, the “fungicidal activity when heated to 50° C.” value is “significant fungicidal activity” and the Importance entry is on record as “High”. Moreover, the “effect on yeast growth at low temperature” value (shortened to “effect on yeast growth”) in experiment [2] (setting [7]) is listed as “little effect”. The “effect on yeast growth” value in experiment [2] (FIGS. 23, 24, adjunct alone 0-200 ppm, low temperature) is “little effect”. Moreover, the “prevention of yeast growth by low levels of the adjunct” value in experiment [2] is given as “prevention of yeast growth”.

As for `CCCCCCCCCCOC(=O)CC` [Decyl propionate], the Importance result in the experiment with fungi is on record as “High”.

With `C=C(C)C1CCC(C)C(O)C1` (centres unmarked) [Dihydrocarveol], the “MIC (ppm)” value in experiment [1] (setting [5]) is 540 ppm.

For `CCCCCCCC=CC(=O)OCC` [Ethyl 2-decenoate], the Importance entry in the experiment on fungi is reported as “High”.

For `C=CCCCCCCCCC(=O)OCC` [Ethyl 10-undecenoate], the Importance entry in the experiment with fungi is given as “High”.

`CCCCCCCCCC(=O)OCC` [Ethyl decanoate]: the Importance entry in the experiment with fungi is “High”.

Consider `CCCCCCCCC(=O)OCC` [Ethyl nonanoate], for which the Importance entry in the experiment on fungi is “High”.

`CC(=O)OC/C=C(\C)CCC=C(C)C` [Geranyl acetate]: the Importance entry in the experiment on fungi was “High”.

As for `CC(=O)CC/C=C(\C)CCC=C(C)C` [Geranyl acetone], the Importance entry in the experiment with fungi is on record as “High”.

In the case of `CCCC(=O)OC/C=C(\C)CCC=C(C)C` [Geranyl butyrate], in the experiment with fungi, the Importance entry was “High”.

On to `CCC(=O)OC/C=C(\C)CCC=C(C)C` [Geranyl propionate], for which the Importance result in the experiment on fungi was “High”.

Regarding `CCCCCCCOC(=O)CCC` [Heptyl butyrate], the Importance entry in the experiment on fungi was “High”.

`CCCCCCOC(=O)CCCCC` [Hexyl hexanoate]: the Importance result with fungi is given as “High”.

For the molecule `CCCCCC(=O)OCCC(C)C` [Isoamyl hexanoate], the Importance entry in the experiment with fungi is “High”.

Regarding `CCCCCCCCCCCC(=O)O` [Lauric acid], the Importance entry in the experiment on fungi is “High”. Further, the MIC50 in the experiment with fungi (setting [3]) was determined as 20 µg/mL.

`CCCCCCCCCCCCO` [Lauric alcohol]: in the experiment with fungi (setting [4]), the “MIC50” value amounted to 0.1 mM and the “MIC50 in ppm (in brackets under the mM value)” value is reported as “(18.6 ppm”. Further, the Importance result in the experiment on fungi is listed as “High”. In addition, the “effect on yeast growth” value in experiment [2] (setting [7]) is reported as “little effect”. Besides, in experiment [2], the “prevention of yeast growth by low levels of the adjunct” value is on record as “prevention of yeast growth”.

Turning to `CCCCCCCCCCCC=O` [Lauric aldehyde], in the experiment on fungi (setting [4]), the “MIC50” value stood at 0.2 mM and the “MIC50 in ppm (in brackets under the mM value)” value was “(36 ppm”. Further, the Importance entry in the experiment on fungi is “High”.

With `CCCCCCCCCC(=O)OC` [Methyl decanoate], the Importance entry with fungi is recorded as “High”.

`CCCCCCCCCCCC(=O)OC` [Methyl laurate]: in the experiment with fungi, the Importance result is reported as “High”.

With `CCCCCCCCC(=O)OC` [Methyl nonanoate], the Importance result in the experiment on fungi was “High”.

Regarding `CCCCCCCCCCC(=O)OC` [Methyl undecanoate], in the experiment on fungi, the Importance result is “High”.

For `CC=CCCCCCCCC(=O)OC` [Methyl-9-undecenoate], in the experiment with fungi, the Importance entry is “High”.

As to `CCCCCCCCCCCCCC(=O)O` [Myristic acid], in the experiment with fungi, the Importance entry was “High”.

For the molecule `CC1(C)C2CC=C(CO)C1C2` (centres unmarked) [Myrtenol], the “MIC (ppm)” value in experiment [1] (setting [5]) and in experiment [1] (setting [6]) was 137 ppm throughout.

With `CC1CCC(C(C)C)C(O)C1` (centres unmarked) [Neomenthol], the “MIC (ppm)” value in experiment [1] (setting [5]) stood at 156 ppm.

As for `C=CC(C)(O)CCC=C(C)CCC=C(C)C` (centres unmarked) [Nerolidol], the Importance result in the experiment with fungi is listed as “High”.

Regarding `CC(C)=CCC/C(C)=C\COC(=O)C(C)C` [Neryl isobutyrate], in the experiment on fungi, the Importance result is listed as “High”.

As to `CCCCCCCCCOC(C)=O` [Nonyl acetate], the Importance entry in the experiment on fungi is given as “High”.

Turning to `CCCCCCCCOC(=O)CCC` [Octyl butyrate], the Importance entry in the experiment on fungi was “High”.

With `CCCCCC(=O)OCCc1ccccc1` [Phenethyl hexanoate], in the experiment on fungi, the Importance entry is reported as “High”.

With `CC(=O)OCc1ccc2c(c1)OCO2` [Piperonyl acetate], in experiment [1] (setting [5]), the MIC stood at 242 µg/mL. In addition, the “MIC (ppm)” value in experiment [1] (setting [6]) worked out at 242 ppm.

Take `CC=CC=CC=O` [Sorbic aldehyde (2,4-hexadienal)]: the “MIC (ppm)” value in experiment [1] (setting [5]) is on record as 86 ppm.

Consider `CCCCCCCCCCCCC=O` [Tridecanal], for which, in the experiment on fungi, the Importance result was “High”.

For the molecule `CCCCCCCCCCCCC(=O)O` [Tridecanoic acid], the Importance entry in the experiment with fungi was “High”.

For the molecule `CCCCCCCCCCCCCO` [Tridecanol], the Importance entry in the experiment on fungi was “High”.

`O=C1CCCCCCCCCCCCCCO1` [w-Pentadecalactone]: the “MIC50” value against fungi (setting [4]) is on record as 60 mM.

As to `C/C(C=O)=C\c1ccccc1` [α-Methyl-trans-cinnamaldehyde], the “MIC (ppm)” value in experiment [1] (setting [5]) worked out at 58.4 ppm.

As for `C=C1CC/C=C(\C)CC[C@@H]2[C@@H]1CC2(C)C` [β-Caryophylene], the “MIC50” value against fungi (setting [4]) is reported as 70 mM.

For the molecule `CCCCCC1CCC(=O)O1` (centres unmarked) [γ-Nonanoic lactone], in experiment [1] (setting [5]), the “MIC (ppm)” value is reported as 63 ppm.

As for `CCCCCCCC1CCC(=O)O1` (centres unmarked) [γ-Undecalactone], the “MIC (ppm)” value in experiment [1] (setting [5]) came out at 28 ppm.

With `CCCC1CCCC(=O)O1` (centres unmarked) [δ-Octalactone], the “MIC (ppm)” value in experiment [1] (setting [5]) came out at 568 ppm.

As for Tolualdehyde, the “MIC (ppm)” value in experiment [1] (setting [5]) stood at 240 ppm.

methyl decenoate: in the experiment with fungi, the “fungicidal activity at 30° C.” value is reported as “no fungicidal activity” and the “fungicidal activity when heated to 50° C.” value is recorded as “significant fungicidal activity”.

On to w-6-Hexadecalactone, for which the “MIC50” value against fungi (setting [4]) came out at 50 mM.
